Measured values: patent US5332811A, “Etopside analogs” (priority 1991, dated 1994)
Where two headings read alike, the source gives them in different places.

Key:
[1] = tested on: Human DNA topoisomerase II; conditions: at higher concentrations; Thurston et al. 1986; cited from earlier work
[2] = tested on: covalent topoisomerase II-DNA complexes; test: K-SDS precipitation assay for protein-DNA complexes in KB ATCC cells (cellular protein-DNA complex formation); assay type: cell-based; conditions: compared with etoposide
Experimental: (§1) The compounds of the present invention were tested for their degree of inhibitory activity on human type II DNA topoisomerase, their effect on the formation of protein-linked DNA breakage, and their cytotoxicity. The inhibitory activity for compounds of the present invention correlated with the ability of the compounds to cause DNA strand breakage. […] For a description of the assays used with respect to the compounds listed in Tables 1 to 5 see Thurston, L.S., Irie, H., Tani, S., Han, F. S., Liu, Z. C., Cheng, Y.C., and Lee, K. H., Antitumor Agents 78. Inhibition of Human DNA Topoisomerase II by Podophyllotoxin and Peltatin Analogues, J. Med. Chem. 29, 1547 (1986), and the references cited therein, herein incorporated by reference.
(§2) Drugs were dissolved in Me2 SO at a concentration of 20 mM as the stock solution and diluted before use with water to the desired concentration of each drug.
The intracellular formation of covalent topoisomerase II-DNA complexes was quantitated using the potassium SDS precipitation assay, a procedure adapted from the method described in Rowe, T. C., Chen, G. L., Hsiang, Y. H., and Liu, L., Cancer Res., 46, 2021 (1986) (hereinafter Rowe et al.), which is herein specifically incorporated by reference. KB ATCC cells were prelabeled with 0.05 mCi/ml ^14 C-thymidine (specific activity 50.5 mCi/mmol) for 18 hr. A final concentration of 5×10^5 cells/sample were treated with 10 μM of the drugs at 37° C. for 1 hr and proceeded according to the procedure described by Rowe et al. to detect the protein linked DNA levels.

[3] = tested on: KB cells; test: Cytotoxicity: 50% reduction in cell number of KB cells after three day incubation; assay type: cell-based; conditions: Homo sapiens, 72 h, KB cells, three day incubation, read-out: Cytotoxicity ID50 KB
Experimental: as §1
in cell number after three day incubation.

[4] = molecular target: Human DNA topoisomerase II; test: DNA topoisomerase II assay (P4 unknotting reaction); assay type: biochemical; conditions: for IC50: read-out: Inhibition of DNA Topoisomerase II Activity ID50; for inhibition of DNA topoisomerase activity relative to etoposide: compared with etoposide
Experimental: as §1, with “cytotoxicity.” for “cytotoxicity. The inhibitory activity for compounds of the present invention correlated with the ability of the compounds to cause DNA strand breakage.”
Human DNA topoisomerase II was isolated from peripheral blast cells of a patient with acute leukemia. The isolation procedure is described in Thurston, L., Imakura, Y., Haruna, M., Li, Z. C., Liu, S. Y., and Lee, K. H., J. Med. Chem., 31, […] (1988) and is a partial combination of the procedure described in Goto, T., Laiapia, P. and Wang, J., J. Biol. Chem., 259, 10422 (1984) and Halligan, B., Edwards, K., and Liu, L., J. Biol. Chem., 260, 2475 (1985) which are herein specifically incorporated by reference.
as §2
The P4 unknotting reaction was a modification of the procedure described by Hseih, T., J. Biol. Chem., 258, 8413 (1985), which is herein specifically incorporated by reference.
The reaction mixture (20 μL), which contained 50 mM HEPES, pH 7.0, 50 mM KCI, 100 mM NaCl, 0.1 mM EDTA, 10 mM MgCl2, 1.0 mM ATP, 50 μg/mL bovine serum albumin, 0.4 μg P4knotted DNA, and enzyme, was incubated with or without drugs.
The reaction mixture was incubated at 37° C. for 30 min and terminated by adding 5.0 μl of a stop solution (2% sodium dodecyl sulfate, 20% glycerol, 0.05% bromophenol blue). These samples were loaded onto a 1% agarose gel and electrophoresed at 55 V overnight with an electrophoresis buffer that contained 90 mM Tris-boric acid, pH 8.3, and 2.5 mM EDTA. At completion, the gel was stained in 0.5 μg/mL of ethidium bromide. Then a photograph was taken of the DNA bands visualized with fluorescence induced by a long-wavelength UV lamp. […]

[5] = clinical level; background; cited from earlier work
[6] = clinical level; background; cited from earlier work; remark: listed apart in the source
[7] = tested on: several human neoplasms, including small cell carcinomas of the lung, testicular carcinomas, Hodgkin's disease, leukemia, lymphoma and Kaposi's Sarcoma; conditions: background; cited from earlier work
[8] = Table 1, based on degree of inhibition at 25, 50, and 100 μM

| SMILES | inhibition of cellular protein-DNA complex formation relative to etoposide [2] | inhibition of DNA topoisomerase activity relative to etoposide [4] | IC50 ([3]; Table 1) | IC50 [4, 8] | also measured |
| --- | --- | --- | --- | --- | --- |
| CCOC1c2cc3c(cc2C(c2cc(OC)c(O)c(OC)c2)C2C(=O)OCC12)OCO3 (centres unmarked) [4'-demethyl-epipodophyllotoxin ethyl ether] |  |  |  |  | inhibitory activity of DNA topoisomerase II [1]: preserves the inhibitory activity of DNA topoisomerase II intact at higher concentrations |
| COc1cc(C2c3cc4c(cc3C(Nc3ccc([N+](=O)[O-])cc3)C3COC(=O)C23)OCO4)cc(O)c1O (stereo not drawn) [Example 23, 3',4'-O-Didemethyl-4β-(4"-nitroanilino)-4-desoxypodophyllotoxin] | over twice | over twice |  |  | IC50 ([3]; Table 2): 1300 nM; IC50 ([4]; Table 2, based on degree of inhibition at 10, 25, 50 and 100 μM): 10000 nM |
| COc1cc(C2c3cc4c(cc3C(NCc3cccc(F)c3)C3COC(=O)C23)OCO4)cc(OC)c1O (stereo not drawn) [Example 8, 4-O-Dimethyl-4β-(3"-fluorobenzylamino)-4-desoxypodophyllotoxin] | over twice | over twice | 3000 nM | 25000 nM |  |
| COc1cc([C@@H]2c3cc4c(cc3[C@@H](O[C@@H]3O[C@@H]5CO[C@@H](C)O[C@H]5[C@H](O)[C@H]3O)[C@H]3COC(=O)[C@H]23)OCO4)cc(OC)c1O [etoposide] |  |  | 200 nM |  | myelosuppression [5]: myelosuppression; oral bioavailability [6]: poor oral bioavailability; therapeutic activity in several human neoplasms [7]: exhibits therapeutic activity in several human neoplasms |
| COc1cc(C2c3cc4c(cc3C(NCc3cccc(C#N)c3)C3COC(=O)C23)OCO4)cc(OC)c1O (stereo not drawn) [Example 10, 4'-O-Demethyl-4β-(3"-cyanobenzylamino)-4-desoxypodophyllotoxin] | over twice | over twice | < 400 nM | 25000 nM |  |
